{
  "source": "patent US20040067915A1",
  "about": "“Method to treat cardiofibrosis with a combination of an angiotensin II antagonist and spironolactone” (G.D. Searle & Co., priority 1995, published 2004)",
  "data": [
    {"target": "T1, angiotensin II receptor (rabbit aortic rings) (Oryctolagus cuniculus, UniProt P34976)", "T1 construct": "The thoracic aorta was removed, cleaned of adherent fat and connective tissue and then cut into 3-mm ring segments; from tissue; host or cells: rabbit thoracic aorta rings, endothelium removed", "T1 sequence (P34976 1-359)": "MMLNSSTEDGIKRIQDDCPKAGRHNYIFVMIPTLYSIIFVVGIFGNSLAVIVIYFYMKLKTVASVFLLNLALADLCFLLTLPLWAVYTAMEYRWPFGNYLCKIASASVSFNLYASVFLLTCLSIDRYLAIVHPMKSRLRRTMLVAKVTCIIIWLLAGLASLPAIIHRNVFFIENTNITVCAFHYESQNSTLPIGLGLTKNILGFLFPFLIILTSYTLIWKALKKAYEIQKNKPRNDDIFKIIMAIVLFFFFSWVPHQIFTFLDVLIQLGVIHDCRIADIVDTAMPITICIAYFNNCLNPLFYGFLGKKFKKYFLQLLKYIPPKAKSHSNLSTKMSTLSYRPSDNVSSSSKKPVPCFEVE", "assay": "Assay B: In vitro Vascular Smooth Muscle Response for AII (rabbit aortic rings, pA2)", "assay_type": "cell-based", "design": "key to Assay B pA2 (NC = Non-Competitive antagonist): NC=Non-Competitive antagonist", "conditions": "not given", "description": "(§1) Assay B: In vitro Vascular Smooth Muscle-response for AII\n(§2) The compounds of the invention were tested for antagonist activity in rabbit aortic rings. Male New Zealand white rabbits (2-2.5 kg) were sacrificed using an overdose of pentobarbital and exsanguinated via the carotid arteries. The thoracic aorta was removed, cleaned of adherent fat and connective tissue and then cut into 3-mm ring segments. The endothelium was removed from the rings by gently sliding a rolled-up piece of filter paper into the vessel lumen. The rings were then mounted in a water-jacketed tissue bath, maintained at 37° C., between moveable and fixed ends of a stainless steel wire with the moveable end attached to an FT03 Grass transducer coupled to a Model 7D Grass Polygraph for recording isometric force responses. […] The preparations were equilibrated for one hour before approximately one gram of passive tension was placed on the rings. Angiotensin II concentration-response curves were then recorded (3×10^−10 to 1×10^−5 M). Each concentration of AII was allowed to elicit its maximal contraction, and then AII was washed out repeatedly for 30 minutes before rechallenging with a higher concentration of AII. Aorta rings were exposed to the test antagonist at 10^−5 M for 5 minutes before challenging with AII. Adjacent segments of the same aorta ring were used for all concentration-response curves in the presence or absence of the test antagonist. The effectiveness of the test compound was expressed in terms of pA2 values and were calculated according to H. O. Schild [Br. J. Pharmacol. Chemother., 2, 189-206 (1947)]. The pA2 value is […] which increases the EC50 value for AII by a factor of two. Each test antagonist was evaluated in aorta rings from two rabbits.\n(§3) 2Assay B: In vitro Vascular Smooth Muscle Response", "values": [
      {"smiles": "CCCCc1cn(-c2ccccc2CC)c(=O)n1Cc1ccc(-c2ccccc2-c2nnn[nH]2)cc1", "note": "[Compound 271]", "Assay B pA2 (NC = Non-Competitive antagonist)": "NC"},
      {"smiles": "CCCCc1cn(-c2ccccc2C(C)C)c(=O)n1Cc1ccc(-c2ccccc2-c2nnn[nH]2)cc1", "note": "[Compound 272]", "Assay B pA2 (NC = Non-Competitive antagonist)": "NC"},
      {"smiles": "CCCCc1cn([C@H]2[C@H](C)CCC[C@@H]2C)c(=O)n1Cc1ccc(-c2ccccc2-c2nnn[nH]2)nc1", "note": "[Compound 236]", "Assay B pA2 (NC = Non-Competitive antagonist)": "NC"}
    ]},
    {"target": "T1, angiotensin II receptor (rabbit aortic rings)", "assay": "Assay B: In vitro Vascular Smooth Muscle Response for AII (rabbit aortic rings, pA2)", "assay_type": "cell-based", "design": "key to Assay B pA2 (NC = Non-Competitive antagonist): NC=Non-Competitive antagonist", "conditions": "two determinations given as a/b", "description": "as §1, §2, §3", "units": {"Kb": "nM"}, "values": [
      {"smiles": "CCCCc1nc2c(O)nncc2n1Cc1ccc(-c2ccccc2-c2nnn[nH]2)cc1", "note": "[Compound 116]", "Kb": 316},
      {"smiles": "CCCCc1cn(-c2c(C(C)C)cccc2C(C)C)c(=O)n1Cc1ccc(-c2ccccc2-c2nnn[nH]2)cc1", "note": "[Compound 277]", "Kb": 288},
      {"smiles": "CCCCCn1nc(CCCC)n(Cc2ccc(-c3ccccc3-c3nn[nH]n3)cc2)c1=O", "note": "[Compound 90]", "Kb": 1},
      {"smiles": "CCCCc1nn(CC(OCC(=O)O)c2ccccc2)c(=O)n1Cc1ccc(-c2ccccc2-c2nn[nH]n2)cc1", "note": "(stereo not shown) [Compound 91]", "Kb": 2.51},
      {"smiles": "CCCCc1nc(C)n(Cc2ccc(-c3ccccc3C(=O)O)cc2)n1", "note": "[Compound 77]", "Kb": 1700},
      {"smiles": "CCCCc1nc(Cl)c(CO)n1Cc1ccc(-n2cccc2C(=O)O)cc1", "note": "[Compound 148]", "Kb": 1580},
      {"smiles": "CCCCc1cn(CCc2ccccc2)c(=O)n1Cc1ccc(-c2ccccc2-c2nnn[nH]2)cc1", "note": "[Compound 133]", "Kb": 2},
      {"smiles": "CCCCc1nc(Cc2ccc(-c3ccccc3C(=O)O)cc2)nn1CCCC", "note": "[Compound 127]", "Kb": 11000},
      {"smiles": "CCCCc1cn(-c2c(C)cccc2C)c(=O)n1Cc1ccc(-c2ccccc2-c2nnn[nH]2)cc1", "note": "[Compound 275]", "Kb": 0.851},
      {"smiles": "CCCCCCn1nc(CCCC)n(Cc2ccc(-c3ccccc3-c3nn[nH]n3)cc2)c1=O", "note": "[Compound 85]", "Kb": 1.26},
      {"smiles": "CCCCc1nc(Cl)c(Cl)n1Cc1ccc(-n2cccc2C(=O)O)cc1", "note": "[Compound 147]", "Kb": 2510},
      {"smiles": "CCCCc1nn(C(=O)CCC)c(=O)n1Cc1ccc(-c2ccccc2-c2nn[nH]n2)cc1", "note": "[Compound 95]", "Kb": 6.31},
      {"smiles": "CCCc1cn(CCC)c(=O)n1Cc1ccc(-c2ccccc2-c2nnn[nH]2)cc1", "note": "[Compound 138]", "Kb": 6.31},
      {"smiles": "CCCCc1nc2c(CCC)nnc(O)c2n1Cc1ccc(-c2ccccc2-c2nnn[nH]2)cc1", "note": "[Compound 113]", "Kb": 3.98},
      {"smiles": "CCCCc1nn(CCCC)c(=O)n1Cc1ccc(-c2ccccc2C(=O)O)cc1", "note": "[Compound 78]", "Kb": 100},
      {"smiles": "CCCCc1nn(C(CC(=O)OCC)C(=O)c2ccccc2)c(=O)n1Cc1ccc(-c2ccccc2-c2nn[nH]n2)cc1", "note": "(stereo not shown) [Compound 101]", "Kb": 15.8},
      {"smiles": "CCCCc1nn(CC(=O)C23CC4CC(CC(C4)C2)C3)c(=O)n1Cc1ccc(-c2ccccc2-c2nn[nH]n2)cc1", "note": "[Compound 80]", "Kb": 7.94},
      {"smiles": "CCCCc1nn(CCC2CCCCC2)c(=O)n1Cc1ccc(-c2ccccc2-c2nn[nH]n2)cc1", "note": "[Compound 89]", "Kb": 12.6},
      {"smiles": "CCCCc1nc(CCCC2CCCCC2)n(Cc2ccc(-c3ccccc3-c3nnn[nH]3)cc2)n1", "note": "[Compound 57]", "Kb": 1000},
      {"smiles": "CCCCc1nc2c(OCC)nnc(OCC)c2n1Cc1ccc(-c2ccccc2-c2nnn[nH]2)cc1", "note": "[Compound 112]", "Kb": 6310},
      {"smiles": "CCCCc1nn(Cc2ccc3ccccc3c2)c(=O)n1Cc1ccc(-c2ccccc2-c2nn[nH]n2)cc1", "note": "[Compound 99]", "Kb": 316},
      {"smiles": "CCCCc1nc2c(Cl)nnc(Cl)c2n1Cc1ccc(-c2ccccc2-c2nnn[nH]2)cc1", "note": "[Compound 110]", "Kb": 398},
      {"smiles": "CCCCc1nn(CC(=O)c2cc(OC)ccc2OC)c(=O)n1Cc1ccc(-c2ccccc2-c2nn[nH]n2)cc1", "note": "[Compound 96]", "Kb": 10},
      {"smiles": "CCCCc1cn(CCc2cccs2)c(=O)n1Cc1ccc(-c2ccccc2-c2nnn[nH]2)cc1", "note": "[Compound 134]", "Kb": 0.501},
      {"smiles": "CCCCc1nn(CC(=O)OCC)c(=O)n1Cc1ccc(-c2ccccc2-c2nn[nH]n2)cc1", "note": "[Compound 86]", "Kb": 15.8},
      {"smiles": "CCCCc1c(C)n(CCCC)c(=O)n1Cc1ccc(-c2ccccc2-c2nnn[nH]2)cc1", "note": "[Compound 137]", "Kb": 5.01},
      {"smiles": "CCCCc1nn(CC(OCC(=O)OCC)c2ccccc2)c(=O)n1Cc1ccc(-c2ccccc2-c2nn[nH]n2)cc1", "note": "(stereo not shown) [Compound 107]", "Kb": 5.01},
      {"smiles": "CCCCc1nn(CC(=O)OC(C)(C)C)c(=O)n1Cc1ccc(-c2ccccc2-c2nn[nH]n2)cc1", "note": "[Compound 84]", "Kb": 79.4},
      {"smiles": "CCCCc1cn(-c2ccccc2Cl)c(=O)n1Cc1ccc(-c2ccccc2-c2nnn[nH]2)cc1", "note": "[Compound 135]", "Kb": 3.16},
      {"smiles": "CCCCc1nn(C(C)(C)C(=O)c2ccccc2)c(=O)n1Cc1ccc(-c2ccccc2-c2nn[nH]n2)cc1", "note": "[Compound 102]", "Kb": 20},
      {"smiles": "CCCCc1nn(CC(OCc2ccccc2)c2ccccc2)c(=O)n1Cc1ccc(-c2ccccc2-c2nn[nH]n2)cc1", "note": "(stereo not shown) [Compound 97]", "Kb": 20},
      {"smiles": "CCCCc1nc(Cc2ccc(-c3ccccc3-c3nnn[nH]3)cc2)nn1CCCC", "note": "[Compound 129]", "Kb": 5010},
      {"smiles": "CCCCc1nn(CCCCC(=O)O)c(=O)n1Cc1ccc(-c2ccccc2-c2nn[nH]n2)cc1", "note": "[Compound 103]", "Kb": 10},
      {"smiles": "CCCCn1nc(C(C#N)CCC)n(Cc2ccc(-c3ccccc3-c3nn[nH]n3)cc2)c1=O", "note": "(stereo not shown) [Compound 106]", "Kb": 20},
      {"smiles": "CCCCc1nc2c(O)nnc(CCC)c2n1Cc1ccc(-c2ccccc2-c2nn[nH]n2)cc1", "note": "[Compound 114]", "Kb": 398},
      {"smiles": "CCCCc1nc2cnncc2n1Cc1ccc(-c2ccccc2C(=O)O)cc1", "note": "[Compound 108]", "Kb": 5010},
      {"smiles": "CCCCc1nn(CC(O)c2ccccc2)c(=O)n1Cc1ccc(-c2ccccc2-c2nn[nH]n2)cc1", "note": "(stereo not shown) [Compound 83]", "Kb": 5.01},
      {"smiles": "CCCCc1nc2c(O)nnc(O)c2n1Cc1ccc(-c2ccccc2C(=O)O)cc1", "note": "[Compound 109]", "Kb": 50.1},
      {"smiles": "CCCCc1nn(CCCc2ccccc2)c(=O)n1Cc1ccc(-c2ccccc2-c2nn[nH]n2)cc1", "note": "[Compound 81]", "Kb": 10},
      {"smiles": "CCCCc1nn(CC(O)c2cc(OC)ccc2OC)c(=O)n1Cc1ccc(-c2ccccc2-c2nn[nH]n2)cc1", "note": "(stereo not shown) [Compound 98]", "Kb": 7.94},
      {"smiles": "CCCCc1nn(CC(=O)O)c(=O)n1Cc1ccc(-c2ccccc2-c2nn[nH]n2)cc1", "note": "[Compound 87]", "Kb": 15.8},
      {"smiles": "CCCCc1nn(CCC(C)CC(C)(C)C)c(=O)n1Cc1ccc(-c2ccccc2-c2nn[nH]n2)cc1", "note": "(stereo not shown) [Compound 92]", "Kb": 12.6},
      {"smiles": "CCCCc1ncn(Cc2ccc(-c3ccccc3-c3nnn[nH]3)cc2)n1", "note": "[Compound 54]", "Kb": 955}
    ]}
  ]
}
